Usually pIC50 stands for the negative decadic logarithm of the IC50, by convention in mol/L.

pIC50: −log10 of the molar value.

Sequence of CYP46A1 (Q9Y6A2 whole entry): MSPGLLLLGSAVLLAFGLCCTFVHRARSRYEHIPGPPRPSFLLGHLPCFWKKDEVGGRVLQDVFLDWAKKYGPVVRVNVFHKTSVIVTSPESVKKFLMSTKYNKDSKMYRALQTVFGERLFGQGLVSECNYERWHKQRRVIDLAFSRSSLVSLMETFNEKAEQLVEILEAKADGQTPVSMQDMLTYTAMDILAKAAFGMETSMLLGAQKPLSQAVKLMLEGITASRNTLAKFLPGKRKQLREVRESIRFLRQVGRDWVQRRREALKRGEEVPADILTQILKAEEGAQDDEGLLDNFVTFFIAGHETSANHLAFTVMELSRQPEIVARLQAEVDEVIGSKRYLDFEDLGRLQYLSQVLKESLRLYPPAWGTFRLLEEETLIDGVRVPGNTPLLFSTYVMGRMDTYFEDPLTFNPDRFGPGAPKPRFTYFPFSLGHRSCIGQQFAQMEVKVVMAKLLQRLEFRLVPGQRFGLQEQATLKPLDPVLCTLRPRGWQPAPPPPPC

For this assay, the target named is CYP46A1 (Homo sapiens, UniProt Q9Y6A2). In words: CYP46A1 Enzyme Assay 2 (testosterone substrate, HPLC-MS). It is filed as biochemical. Conditions: read-out: IC50 (CYP46A1 inhibitory activity). How it is done:
Briefly, in a 384-well plate format, 10 μL per well of an enzyme-substrate mixture of CYP46A1 (5 μM final concentration) and Testosterone ([…] final concentration) were dispensed to wells containing test compound. For CYP46A1 titration, 5 μL per well of serially diluted CYP46A1 (concentrations including 10 μM, 5 μM, and 2.5 μM) and Testosterone (concentration of […]) were dispensed. For Testosterone titration, 5 μL per well of serially diluted Testosterone (concentrations including 10 μM, 5 μM, and 2.5 μM) and CYP46A1 (concentration of 5 μM) were dispensed. The plates were centrifuged at 1000 rpm for 30 seconds, and then sealed and incubated at 37° C. for 30 minutes. The plate was removed from the incubator, and then 10 μL per well of NADPH-generating system were dispensed to initiate the reaction. The plates were incubated at 37° C. for 15 minutes, added with 80 μL per well of 100% methanol consisting 1 ng/ml diclofenac as internal standard, and then transferred for HPLC-MS.
Consider `N#CC1(Cc2ccc(C3CC3)nc2)CCN(C(=O)c2cccnc2-c2ccncn2)CC1` [Compound A211, 4-((6-cyclopropylpyridin-3-yl)methyl)-1-(2-(pyrimidin-4-yl)nicotinoyl)piperidine-4-carbonitrile], for which the pIC50 is above 7.00.
As to `N#CC1(Cc2ccc(C3CC3)cc2)CCN(C(=O)c2cccnc2-c2ccncn2)CC1` [Compound A212, 4-(4-cyclopropylbenzyl)-1-(2-(pyrimidin-4-yl)nicotinoyl)piperidine-4-carbonitrile], the pIC50 was above 7.00.
Under `N#CC1(Cc2cc(F)cc(F)c2)CCN(C(=O)c2cccnc2-c2ccncn2)CC1` [Compound A213, 4-(3,5-difluorobenzyl)-1-(2-(pyrimidin-4-yl)nicotinoyl)piperidine-4-carbonitrile] stands above 7.00.
The figure for `N#CC1(Cc2ccccc2C2CC2)CCN(C(=O)c2cccnc2-c2ccncn2)CC1` [Compound A214, 4-(2-cyclopropylbenzyl)-1-(2-(pyrimidin-4-yl)nicotinoyl)piperidine-4-carbonitrile] is above 7.00; for `CC[C@H](c1ccc(F)cc1)C1(C#N)CCN(C(=O)c2cccnc2-c2ccncn2)CC1` [Compound A215, (R)-4-(1-(4-fluorophenyl)propyl)-1-(2-(pyrimidin-4-yl)nicotinoyl)piperidine-4-carbonitrile] it is above 7.00; for `CC[C@@H](c1ccc(F)cc1)C1(C#N)CCN(C(=O)c2cccnc2-c2ccncn2)CC1` [Compound A216, (S)-4-(1-(4-fluorophenyl)propyl)-1-(2-(pyrimidin-4-yl)nicotinoyl)piperidine-4-carbonitrile] it is above 7.00.
The figure for `N#CC1(Cc2ccc(OC(F)(F)F)cc2)CCN(C(=O)c2cccnc2-c2ccncn2)CC1` [Compound A217, 1-(2-(pyrimidin-4-yl)nicotinoyl)-4-(4-(trifluoromethoxy)benzyl)piperidine-4-carbonitrile] is above 7.00; for `N#CC1(Cc2cccc(C3CC3)c2)CCN(C(=O)c2cccnc2-c2ccncn2)CC1` [Compound A218, 4-(3-cyclopropylbenzyl)-1-(2-(pyrimidin-4-yl)nicotinoyl)piperidine-4-carbonitrile] it is above 7.00.
As to `N#CC1(Cc2ccc(F)cc2)CCN(C(=O)c2cc(F)ccc2-c2ccncn2)CC1` [Compound A219, 1-(5-fluoro-2-(pyrimidin-4-yl)benzoyl)-4-(4-fluorobenzyl)piperidine-4-carbonitrile], the pIC50 is above 7.00.
Under `N#CC1(Cc2ccc(F)cc2)CCN(C(=O)c2ccc(F)cc2-c2ccncn2)CC1` [Compound A220, 1-(4-fluoro-2-(pyrimidin-4-yl)benzoyl)-4-(4-fluorobenzyl)piperidine-4-carbonitrile] stands above 7.00.
For the molecule `N#CC1(Cc2ccc(F)cc2)CCN(C(=O)c2c(F)cccc2-c2ccncn2)CC1` [Compound A221, 1-(2-fluoro-6-(pyrimidin-4-yl)benzoyl)-4-(4-fluorobenzyl)piperidine-4-carbonitrile], the pIC50 was above 7.00.
`N#CC1(Cc2ccc(C(F)(F)F)nc2)CCN(C(=O)c2cccnc2-c2ccncn2)CC1` [Compound A222, 1-(2-(pyrimidin-4-yl)nicotinoyl)-4-((6-(trifluoromethyl)pyridin-3-yl)methyl)piperidine-4-carbonitrile]: the pIC50 was 6.00 to 7.00.
As to `CC(C)(O)c1ccc(CC2(C#N)CCN(C(=O)c3cccnc3-c3ccncn3)CC2)cc1` [Compound A223, 4-(4-(2-hydroxypropan-2-yl)benzyl)-1-(2-(pyrimidin-4-yl)nicotinoyl)piperidine-4-carbonitrile], the pIC50 was 6.00 to 7.00.
The figure for `N#CC1(Cc2ccc3ccccc3c2)CCN(C(=O)c2cccnc2-c2ccncn2)CC1` [Compound A224, 4-(naphthalen-2-ylmethyl)-1-(2-(pyrimidin-4-yl)nicotinoyl)piperidine-4-carbonitrile] is above 7.00.
The figure for `N#CC1(Cc2cccc3ccccc23)CCN(C(=O)c2cccnc2-c2ccncn2)CC1` [Compound A225, 4-(naphthalen-1-ylmethyl)-1-(2-(pyrimidin-4-yl)nicotinoyl)piperidine-4-carbonitrile] is above 7.00.
Under `N#CC1(Cc2ccc(C3CC3)cn2)CCN(C(=O)c2cccnc2-c2ccncn2)CC1` [Compound A226, 4-((5-cyclopropylpyridin-2-yl)methyl)-1-(2-(pyrimidin-4-yl)nicotinoyl)piperidine-4-carbonitrile] stands 6.00 to 7.00; under `N#CC1(Cc2ccc(F)cc2)CCN(C(=O)c2cc(C(F)(F)F)ccc2-c2ccncn2)CC1` [Compound A227, 4-(4-fluorobenzyl)-1-(2-(pyrimidin-4-yl)-5-(trifluoromethyl)benzoyl)piperidine-4-carbonitrile], above 7.00; under `N#CC1(Cc2ccc(C(F)(F)F)cn2)CCN(C(=O)c2cccnc2-c2ccncn2)CC1` [Compound A228, 1-(2-(pyrimidin-4-yl)nicotinoyl)-4-((5-(trifluoromethyl)pyridin-2-yl)methyl)piperidine-4-carbonitrile], 6.00 to 7.00.
With `N#CC1(Cc2ccc(F)cc2)CCN(C(=O)c2ccccc2-c2ccncn2)CC1` [Compound A229, 4-(4-fluorobenzyl)-1-(2-(pyrimidin-4-yl)benzoyl)piperidine-4-carbonitrile], the pIC50 is above 7.00.
With `N#CC1(Cc2ccc(F)cc2C2CC2)CCN(C(=O)c2cccnc2-c2ccncn2)CC1` [Compound A230, 4-(2-cyclopropyl-4-fluorobenzyl)-1-(2-(pyrimidin-4-yl)nicotinoyl)piperidine-4-carbonitrile], the pIC50 is above 7.00.
For the molecule `N#CC1(Cc2ccc(Cl)cc2C2CC2)CCN(C(=O)c2cccnc2-c2ccncn2)CC1` [Compound A231, 4-(4-chloro-2-cyclopropylbenzyl)-1-(2-(pyrimidin-4-yl)nicotinoyl)piperidine-4-carbonitrile], the pIC50 is above 7.00.
The figure for `N#CC1(Cc2ccc(Cl)cc2Br)CCN(C(=O)c2cccnc2-c2ccncn2)CC1` [Compound A232, 4-(2-bromo-4-chlorobenzyl)-1-(2-(pyrimidin-4-yl)nicotinoyl)piperidine-4-carbonitrile] is above 7.00; for `N#CC1(Cc2ccc(F)cc2)CCN(C(=O)c2cccnc2-c2ncncc2F)CC1` [Compound A233, 4-(4-fluorobenzyl)-1-(2-(5-fluoropyrimidin-4-yl)nicotinoyl)piperidine-4-carbonitrile] it is below 6.00.
The figure for `N#CC1(Cc2ccc(F)cc2)CCN(C(=O)c2cc(Cl)ccc2-c2ccncn2)CC1` [Compound A234, 1-(5-chloro-2-(pyrimidin-4-yl)benzoyl)-4-(4-fluorobenzyl)piperidine-4-carbonitrile] is above 7.00; for `N#C[C@]1(Cc2ccc(F)cc2)CCN(C(=O)c2cccnc2-c2ccncn2)C1` [Compound A235, (R)-3-(4-fluorobenzyl)-1-(2-(pyrimidin-4-yl)nicotinoyl)pyrrolidine-3-carbonitrile] it is below 6.00.
Regarding `N#C[C@@]1(Cc2ccc(F)cc2)CCN(C(=O)c2cccnc2-c2ccncn2)C1` [Compound A236, (S)-3-(4-fluorobenzyl)-1-(2-(pyrimidin-4-yl)nicotinoyl)pyrrolidine-3-carbonitrile], the pIC50 is below 6.00.
Under `C[C@H](c1ccc(F)cc1F)C1(C#N)CCN(C(=O)c2cccnc2-c2ccncc2)CC1` [Compound A237, (S)-1-([2,4′-bipyridine]-3-carbonyl)-4-(1-(2,4-difluorophenyl)ethyl)piperidine-4-carbonitrile] stands above 7.00.
Under `C[C@@H](c1ccc(F)cc1F)C1(C#N)CCN(C(=O)c2cccnc2-c2ccncc2)CC1` [Compound A238, (R)-1-([2,4′-bipyridine]-3-carbonyl)-4-(1-(2,4-difluorophenyl)ethyl)piperidine-4-carbonitrile] stands above 7.00; under `N#CC1(Cc2cnc(C(F)(F)F)nc2)CCN(C(=O)c2cccnc2-c2ccncn2)CC1` [Compound A239, 1-(2-(pyrimidin-4-yl)nicotinoyl)-4-((2-(trifluoromethyl)pyrimidin-5-yl)methyl)piperidine-4-carbonitrile], below 6.00; under `N#CC1(Cc2ccc(C(F)(F)F)cc2F)CCN(C(=O)c2cccnc2-c2ccncn2)CC1` [Compound A240, 4-(2-fluoro-4-(trifluoromethyl)benzyl)-1-(2-(pyrimidin-4-yl)nicotinoyl)piperidine-4-carbonitrile], above 7.00.
As for `C[C@H](c1ccc(F)cc1F)C1(C#N)CCN(C(=O)c2cccnc2-c2ccncn2)CC1` [Compound A241, (S)-4-(1-(2,4-difluorophenyl)ethyl)-1-(2-(pyrimidin-4-yl)nicotinoyl)piperidine-4-carbonitrile], the pIC50 is above 7.00.
The figure for `C[C@@H](c1ccc(F)cc1F)C1(C#N)CCN(C(=O)c2cccnc2-c2ccncn2)CC1` [Compound A242, (R)-4-(1-(2,4-difluorophenyl)ethyl)-1-(2-(pyrimidin-4-yl)nicotinoyl)piperidine-4-carbonitrile] is above 7.00; for `C[C@H](c1c(F)cccc1F)C1(C#N)CCN(C(=O)c2cccnc2-c2ccncn2)CC1` [Compound A243, (S)-4-(1-(2,6-difluorophenyl)ethyl)-1-(2-(pyrimidin-4-yl)nicotinoyl)piperidine-4-carbonitrile] it is above 7.00.
The figure for `C[C@@H](c1c(F)cccc1F)C1(C#N)CCN(C(=O)c2cccnc2-c2ccncn2)CC1` [Compound A244, (R)-4-(1-(2,6-difluorophenyl)ethyl)-1-(2-(pyrimidin-4-yl)nicotinoyl)piperidine-4-carbonitrile] is above 7.00.

The values above are taken from US20220332699A1 (SAGE THERAPEUTICS, INC., priority 2019, published 2022).
